Data on one compound can be found in ChEMBL document CHEMBL1158262, “Novel beta-methoxyacrylates of the 9-methoxystrobilurin and oudesmansin classes produced by the basidiomycete Favolaschia pustulosa” (J Nat Prod, 1996).

For experiment [1], the system named is JIYOYE. In words: Cytotoxicity against human Jijoye cells after 5 days by XTT assay. It is filed as functional, cell-based. As to conditions: 120 h.
For the next experiment, the system named is Candida albicans. Description: Antifungal activity against Candida albicans after 18 hrs by serial dilution method. The experiment is classed as functional.
The test system of the next experiment is Bacillus subtilis. In words: Antibacterial activity against Bacillus subtilis after 18 hrs by serial dilution method. It is filed as functional.
Experiment [2] relates to JIYOYE. Description: Cytotoxicity against human Jijoye cells after 2 days by XTT assay. It is filed as functional, cell-based. On the technique in general: Tetrazolium assays rely on reduction of a dye to a coloured formazan, in cell work by metabolically active cells.

The term IC50 denotes the point on the concentration scale where inhibition reaches its midpoint. The low end stands for greater potency in that assay, the high end for weaker potency in that assay. Broadly, the MIC is the least concentration at which growth counts as inhibited.

Each structure is given as a SMILES string. In brackets after ≈: the same amount, converted by molar mass. Activity calls are given as the source filed them. The calls are words filed in the database; no cut-off is given here.

In turn, `C=CC(C)(C)OC(C)(C)C1COc2ccc(/C=C/C(OC)=C(C)\C(=C/OC)C(=O)OC)cc2O1` (stereo not given) gave an IC50 in the experiment with JIYOYE [1] of 1.8 nM. In the experiment on JIYOYE [1] (read-out: LC50 (the source's name)), the CC50 stood at 1.8 nM. For the same compound, the MIC against Candida albicans turned out to be 6 µM (≈ 2.84 µg/mL); with Bacillus subtilis it was 0.9 µM (≈ 0.425 µg/mL). In addition, the result with JIYOYE [2] was inactive.
